From US7989446B2, “4-amino 5-cyanopyrimidine derivatives” (Otsuka Pharmaceutical Co., Ltd., priority 2004, dated 2011)
Where a name gives a salt, the structure may show the parent alone.

Experiments:
[1] = biological target: T1, adenosine A2a receptor (Human) (Homo sapiens, UniProt P29274); test: c-AMP generating action in cell expressing adenosine A2a receptor; type: cell-based; details: HEK293 cell expressing human A2a; 100% = c-AMP caused by 1 μM CGS-21680; read-out: A2a Agonistic Action (EC50)
T1 construct: host or cells: HEK293
Description: (1) c-AMP Generating Action in Cell Expressing Adenosine A2a Receptor
The test was carried out as mentioned below with reference to the method disclosed in the reference (Klotz k. N. et al., Naunyn-Schmiedeberg's Arch. Pharmacol., (1998) 357, 1-9; Shryock J. C. et al., Molecular Pharmacology, (1998) 53, 886-893).
As to the cell, HEK293 cell expressing adenosine A2a receptor (Human) (PerkinElmer Life Sciences, Code No. RBHA2AC) was used.
As to the culture medium, Dulbecco's modified Eagles medium (DMEM) including 10% FBS (Fetal bovine serum) and 1 mM of sodium pyruvate was used.
The cell was placed on 96 well plate (1×10^5/well), and cultured overnight. After removing off the supernatant, to each well, 0.1 ml of DMEM (without FBS) containing 20 mM HEPES, 0.1 mM of IBMX (3-isobutyl-1-methylxanthine) and 2 unit/mL adenosine deaminase was added, and they were incubated at 37° C. for 30 minutes. To each well, 0.1 ml of the culture medium including the DMSO solution of the test compound in an appropriate concentration was added and they were incubated for additional 30 minutes. After removing off the supernatant, the cytolytic solution was added to quench the reaction. The amount of c-AMP in each well was measured by using the c-AMP enzyme immunoassay (EIA) system (Amersham Biosciences, Code No. RPN225).
The same assay was repeated using CGS-21680 (2-p-carboxyethyl)phenethylamino-5′-N-ethylcarboxamidoadenosine hydrochloride, (Sigma, code C141) as reference compound. The amount of resultant c-AMP in the medium, caused by 1 μM of reference compound, was defined to be 100%. A concentration of assayed compound in the medium, producing 50% c-AMP amounts, was calculated to be EC50 value.

[2] = test system: Intraocular Pressure in Rabbit; test: Measuring test for intraocular pressure in rabbit; type: in vivo, Female New Zealand white rabbits; details: 0.3% suspended ophthalmic preparation, test group, mean±standard error
Description: (3) Measuring Test for Intraocular Pressure in Rabbit
The test compounds were dissolved in 10 mM of phosphate buffer (pH 7.5) (hereinafter, referred to as “vehicle of ophthalmic preparation”), and they were instilled in a given concentration. In addition, the compounds insoluble in that concentration was used as a suspension. Female New Zealand white rabbits (KITAYAMA LABES Co., Ltd.) whose weights were 2.0-4.0 kg were used.
The measurement of the intraocular pressure was carried out using Pneumatonometer (Model 30 Classic, Mentor company) without anesthesia. In addition, before the measurement of the intraocular pressure, the surface anesthesia with 0.4% oxybuprocaine hydrochloride (“Benoxil” 0.4% ophthalmic solution, Santen Pharmaceutical Co., Ltd.) was carried out.
The animals whose intraocular pressure was stable before instillation were selected, and these animals were divided to every 4 animal in each one group, 50 μL of eye drops including each the test compound was administered to one-sided eye and vehicle was administered to contralateral eye as the control eye. The measurement of intraocular pressure was carried out before instillation and after 0.5, 1, 2, 3, 4 and 6 hours from instillation. The effect on the intraocular pressure was shown as the difference from pre-instillation (ΔIOP, mmHg, mean±standard error). The following Tables 14 and 15 show the results of Control Compounds A and B used as 1% suspensions which are the same as in the pharmacological test (1).
The animals were pretreated as mentioned above, and among them animals whose intraocular pressure was stable before instillation were selected, and these animals were divided to every 5 to 8 animal in each one group. Every two group was used for each of the test compounds. The test compound was administered unilaterally to the eye of the test group rabbit and the intraocular pressure was measured. The vehicle was administered unilaterally to the eye of the control group rabbit and the intraocular pressure was measured. As mentioned above, the measurement of intraocular pressure was carried out before instillation and after 0.5, 1, 2, 3, 4 and 6 hours from instillation, and the effect on the intraocular pressure was shown as the difference from pre-instillation (ΔIOP, mmHg, mean±standard error).

T1 sequence (P29274 whole entry): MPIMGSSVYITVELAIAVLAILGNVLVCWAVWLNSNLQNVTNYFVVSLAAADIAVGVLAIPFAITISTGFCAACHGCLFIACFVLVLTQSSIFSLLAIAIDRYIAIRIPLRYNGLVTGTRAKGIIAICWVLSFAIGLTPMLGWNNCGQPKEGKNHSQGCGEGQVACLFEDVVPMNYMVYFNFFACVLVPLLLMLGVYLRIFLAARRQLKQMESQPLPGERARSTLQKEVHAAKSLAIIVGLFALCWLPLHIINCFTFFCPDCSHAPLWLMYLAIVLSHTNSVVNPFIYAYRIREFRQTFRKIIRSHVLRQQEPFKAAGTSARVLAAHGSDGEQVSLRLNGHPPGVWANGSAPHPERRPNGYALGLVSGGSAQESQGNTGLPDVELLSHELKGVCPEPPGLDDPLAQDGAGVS

Structure (SMILES) | EC50 [1] [nM] | also measured
CC(=O)Nc1ccc(-c2nc(SCc3cccc(CCC(=O)N4CCNCC4)n3)nc(N)c2C#N)cc1 [Example 74, N-(4-{6-amino-5-cyano-2-[6-(3-oxo-3-piperazin-1-ylpropyl)pyridin-2-ylmethylsulfanyl]-pyrimidin-4-yl}phenyl)acetamide hydrochloride] | 2.5 | –
CC(=O)Nc1ccc(-c2nc(SCc3ccc(C)cn3)nc(N)c2C#N)cc1 [Example 3, N-{4-[6-amino-5-cyano-2-(5-methylpyridin-2-ylmethylsulfanyl)pyrimidin-4-yl]phenyl}acetamide] | 65.7 | –
CC(=O)Nc1ccc(-c2nc(SCc3cccc(C#CCCC(=O)N4CCN(C)CC4)n3)nc(N)c2C#N)cc1 [Example 52, N-[4-(6-amino-5-cyano-2-{6-[5-(4-methylpiperazin-1-yl)-5-oxopent-1-ynyl]pyridin-2-ylmethylsulfanyl}pyrimidin-4-yl)phenyl]acetamide] | 7 | –
CCC(=O)CCc1cccc(CSc2nc(N)c(C#N)c(-c3ccc(NC(C)=O)cc3)n2)n1 [Example 82, N-(4-{6-amino-5-cyano-2-[6-(3-oxopentyl)pyridin-2-ylmethylsulfanyl]pyrimidin-4-yl}phenyl)acetamide] | 8.2 | –
CC(=O)Nc1ccc(-c2nc(SCc3cccc(C(=O)N4CCN(C(=O)OC(C)(C)C)CC4)n3)nc(N)c2C#N)cc1 [Example 28, t-butyl 4-{6-[4-(4-acetylaminophenyl)-6-amino-5-cyanopyrimidin-2-ylsulfanyl-methyl]pyridine-2-carbonyl}piperazine-1-carboxylate] | 8.2 | –
Cc1cccc(CSc2nc(N)c(C#N)c(-c3ccc(N)cc3)n2)n1 [Example 8, 4-amino-6-(4-aminophenyl)-2-(6-methylpyridin-2-ylmethylsulfanyl)-pyrimidine-5-carbonitrile] | 34.8 | –
CCNC(=O)[C@H]1O[C@@H](n2cnc3c(N)nc(NCCc4ccc(CCC(=O)O)cc4)nc32)[C@H](O)[C@@H]1O [CGS-21680, (2-p-carboxyethyl)phenethylamino-5′-N-ethylcarboxamidoadenosine hydrochloride, reference compound] | – | ΔIOP (mmHg) ([2]; 0.5 hr): −2.5 ± 0.4 mmHg; ΔIOP (mmHg) ([2]; 1 hr): −6.3 ± 0.6 mmHg; ΔIOP (mmHg) ([2]; 2 hr): −4.2 ± 0.4 mmHg; ΔIOP (mmHg) ([2]; 3 hr): −3.5 ± 0.4 mmHg; ΔIOP (mmHg) ([2]; 4 hr): −1.5 ± 0.7 mmHg; ΔIOP (mmHg) ([2]; 6 hr): 0.3 ± 0.4 mmHg
CCC(=O)Nc1ccc(-c2nc(SCc3cccc(C)n3)nc(N)c2C#N)cc1 [Example 9, N-{4-[6-amino-5-cyano-2-(6-methylpyridin-2-ylmethylsulfanyl)-pyrimidin-4-yl]phenyl}propionamide] | 9 | –
CC(=O)Nc1ccc(-c2nc(SCc3cccc(CN4CCN(C(=O)c5ccccc5)CC4)n3)nc(N)c2C#N)cc1 [Example 19, N-(4-{6-amino-2-[6-(4-benzoylpiperazin-1-ylmethyl)pyridin-2-ylmethylsulfanyl]-5-cyanopyrimidin-4-yl}phenyl)acetamide] | 7.4 | –
CC(=O)Nc1ccc(-c2nc(SCc3cccc(C(=O)N4CCOCC4)n3)nc(N)c2C#N)cc1 [Example 26, N-(4-{6-amino-5-cyano-2-[6-(morpholin-4-carbonyl)pyridin-2-ylmethyl-sulfanyl]pyrimidin-4-yl}phenyl)acetamide hydrochloride salt] | 30.7 | –
CC(=O)Nc1ccc(-c2nc(SCc3cc(C)ccn3)nc(N)c2C#N)cc1 [Example 4, N-{4-[6-amino-5-cyano-2-(4-methylpyridin-2-ylmethylsulfanyl)pyrimidin-4-yl]phenyl}acetamide] | 879 | –
CCCS(=O)(=O)N(C)Cc1cccc(CSc2nc(N)c(C#N)c(-c3ccc(NC(C)=O)cc3)n2)n1 [Example 41, N-{4-[6-amino-5-cyano-2-(6-{[methyl(propan-1-sulfonyl)amino]methyl}-pyridin-2-ylmethylsulfanyl)pyrimidin-4-yl]phenyl}acetamide] | 23 | –
C=CC(=O)Nc1ccc(-c2nc(SCc3cccc(C)n3)nc(N)c2C#N)cc1 [Example 10, N-{4-[6-amino-5-cyano-2-(6-methylpyridin-2-ylmethylsulfanyl)pyrimidin-4-yl]phenyl}acrylamide] | 19.1 | –
CC(=O)Nc1ccc(-c2nc(SCc3cccc(CCC(=O)NCCN)n3)nc(N)c2C#N)cc1 [Example 60, 3-{6-[4-(4-acetylaminophenyl)-6-amino-5-cyanopyrimidin-2-ylsulfanylmethyl]pyridin-2-yl}-N-(2-aminoethyl)propionamide hydrochloride] | 2.8 | –
CC(=O)Nc1ccc(-c2nc(SCc3cccc(CCC(=O)OC(C)(C)C)n3)nc(N)c2C#N)cc1 [Example 42, t-butyl 3-{6-[4-(4-acetylaminophenyl)-6-amino-5-cyanopyrimidin-2-ylsulfanyl-methyl]pyridin-2-yl}propionate] | 10 | –
CCC(=O)Nc1ccc(-c2nc(SCc3cccc(CCC(=O)N4CCN(C)CC4)n3)nc(N)c2C#N)cc1 [Example 57, N-[4-(6-amino-5-cyano-2-{6-[3-(4-methylpiperazin-1-yl)-3-oxopropyl]pyridin-2-ylmethylsulfanyl}pyrimidin-4-yl)phenyl]propionamide] | 3.4 | –
CCN(CC)CCN1CCN(C(=O)CCCCc2cccc(CSc3nc(N)c(C#N)c(-c4ccc(NC(C)=O)cc4)n3)n2)CC1 [Example 55, N-{4-[6-amino-5-cyano-2-(6-{5-[4-(2-diethylaminoethyl)piperazin-1-yl]-5-oxopentyl}pyridin-2-ylmethylsulfanyl)pyrimidin-4-yl]phenyl}acetamide hydrochloride] | 5.5 | –
CC(=O)Nc1ccc(-c2nc(SCc3cccc(CCCCC(=O)N4CCN(C)CC4)n3)nc(N)c2C#N)cc1 [Example 54, N-[4-(6-amino-5-cyano-2-{6-[5-(4-methylpiperazin-1-yl)-5-oxopentyl]pyridin-2-ylmethyl-sulfanyl}pyrimidin-4-yl)phenyl]acetamide] | 5.3 | –
CC(=O)Nc1ccc(-c2nc(SCc3ccccn3)nc(N)c2C#N)cc1 [Example 1, N-{4-[6-amino-5-cyano-2-(pyridin-2-ylmethylsulfanyl)-pyrimidin-4-yl]phenyl}acetamide] | 39.6 | –
CC(=O)Nc1ccc(-c2nc(SCc3cccc(CN4CCN(C(=O)CN5CCN(C)CC5)CC4)n3)nc(N)c2C#N)cc1 [Example 21, N-{4-[6-amino-5-cyano-2-(6-{4-[2-(4-methylpiperazin-1-yl)acetyl]piperazin-1-ylmethyl}pyridin-2-ylmethylsulfanyl)pyrimidin-4-yl]phenyl}acetamide hydrochloride] | 10.6 | –
CC(=O)Nc1ccc(-c2nc(SCc3cccc(C=CC(=O)N4CCN(C)CC4)n3)nc(N)c2C#N)cc1 [Example 48, N-[4-(6-amino-5-cyano-2-{6-[3-(4-methylpiperazin-1-yl)-3-oxopropenyl]pyridin-2-ylmethylsulfanyl}pyrimidin-4-yl)-phenyl]acetamide] | 29.1 | –
CC(=O)Nc1ccc(-c2nc(SCc3cccc(CCC(=O)N4CCCCC4CO)n3)nc(N)c2C#N)cc1 (stereo not drawn) [Example 70, N-[4-(6-amino-5-cyano-2-{6-[3-(2-hydroxymethylpiperidin-1-yl)-3-oxopropyl]pyridin-2-ylmethylsulfanyl}pyrimidin-4-yl)phenyl]acetamide hydrochloride] | 8.8 | –
